Test results from patent publication US20230303549A1, “SUBSTITUTED HETEROARYLOXYPYRIDINES, THE SALTS THEREOF AND THEIR USE AS HERBICIDAL AGENTS” (Bayer Aktiengesellschaft, priority 2020, published 2023).

Legend:
Format in all cases: in vivo
[1] = system: Alopecurus myosuroides (ALOMY); test: Pre-emergence herbicide efficacy at 320 g/ha, greenhouse pot test; details: visual scoring vs untreated control after about 3 weeks
Text: (§1) Seeds of mono- and dicotyledonous weed plants were placed in plastic pots in sandy loam soil (doubly sown with in each case one species of mono- or dicotyledonous weed plants per pot) and covered with soil. The compounds of the invention, formulated in the form of wettable powders (WP) or as emulsion concentrates (EC), were then applied onto the surface of the covering soil as aqueous suspension or emulsion with addition of 0.5% additive at a water application rate of 600 liters per hectare (converted). After the treatment, the pots were placed in a greenhouse and kept under good growth conditions for the test plants. After about 3 weeks, the effect of the preparations was scored visually in comparison with untreated controls as percentages. For example, 100% activity=the plants have died, 0% activity=like control plants. Tables C1 to C12 below show the effects of selected compounds of the general formula (I) according to Table 1 on various harmful plants and an application rate corresponding to 320 g/ha, which were obtained by the experimental procedure mentioned above.

Stellaria media (STEME) [2] = test: as above; details: visual scoring vs untreated control after about 3 weeks
Text: as §1

Bassia scoparia (KCHSC) [3] = test: as above
Text: as §1

[4] = system: Amaranthus retroflexus (AMARE); test: as above; details: visual scoring vs untreated control after about 3 weeks
Text: as §1

Setaria viridis (SETVI) [5] = test: as above; details: visual scoring vs untreated control after about 3 weeks
Text: as §1

Veronica persica (VERPE) [6] = test: as above; details: visual scoring vs untreated control after about 3 weeks
Text: as §1

[7] = system: Abutilon theophrasti (ABUTH); test: as above; details: visual scoring vs untreated control after about 3 weeks
Text: as §1

Poa annua (POAAN) = test: as above; details: visual scoring vs untreated control after about 3 weeks
Text: as §1

[8] = system: Digitaria sanguinalis (DIGSA); test: as above; details: visual scoring vs untreated control after about 3 weeks
Text: as §1

[9] = system: Matricaria inodora (MATIN); test: as above; details: visual scoring vs untreated control after about 3 weeks
Text: as §1

[10] = system: Alopecurus myosuroides (ALOMY); test: Post-emergence herbicidal efficacy at 320 g/ha, greenhouse pot test; details: visual rating vs untreated control after about 3 weeks
Description: (§2) Seeds of mono- and dicotyledonous weed plants were placed in plastic pots in sandy loam soil (doubly sown with in each case one species of mono- or dicotyledonous weed plants per pot), covered with soil and cultivated in a greenhouse under controlled growth conditions. 2 to 3 weeks after sowing, the test plants were treated at the one-leaf stage. The compounds of the invention, formulated in the form of wettable powders (WP) or as emulsion concentrates (EC), were applied onto the green parts of the plants as aqueous suspension or emulsion with addition of 0.5% additive at a water application rate of 600 liters per hectare (converted). After the test plants had been kept in the greenhouse under optimum growth conditions for about 3 weeks, the activity of the preparations was rated visually in comparison to untreated controls. For example, 100% activity=the plants have died, 0% activity=like control plants. Tables […] 11 below show the effects of selected compounds of the general formula (I) according to Table 1 on various harmful plants and an application rate corresponding to 320 g/ha, which were obtained by the experimental procedure mentioned above.

Stellaria media (STEME) [11] = test: as above; details: visual rating vs untreated control after about 3 weeks
Description: as §2

Bassia scoparia (KCHSC) [12] = test: as above; details: visual rating vs untreated control after about 3 weeks
Description: as §2

[13] = system: Amaranthus retroflexus (AMARE); test: as above; details: visual rating vs untreated control after about 3 weeks
Description: as §2

Veronica persica (VERPE) [14] = test: as above
Description: as §2

[15] = system: Abutilon theophrasti (ABUTH); test: as above; details: visual rating vs untreated control after about 3 weeks
Description: as §2

[16] = system: Alopecurus myosuroides (ALOMY); test: Pre-emergence herbicide efficacy at 80 g/ha, greenhouse pot test; details: visual scoring vs untreated control after about 3 weeks
Text: (§3) Seeds of monocotyledonous and dicotyledonous weed plants and crop plants were placed in plastic or organic planting pots and covered with soil. The compounds of the invention, formulated in the form of wettable powders (WP) or as emulsion concentrates (EC), were then applied to the surface of the covering soil as aqueous suspension or emulsion with addition of 0.5% additive at a water application rate of […] (converted). After the treatment, the pots were placed in a greenhouse and kept under good growth conditions for the test plants. After about 3 weeks, the effect of the preparations was scored visually in comparison with untreated controls as percentages. For example, 100% activity=the plants have died, 0% activity=like control plants. Tables D1 to D12 below show the effects of selected compounds of the general formula (I) according to Table 1 on various harmful plants and an application rate corresponding to 80 g/ha, which were obtained by the experimental procedure mentioned above.

[17] = system: Amaranthus retroflexus (AMARE); test: as above; details: visual scoring vs untreated control after about 3 weeks
Text: as §3

Setaria viridis (SETVI) [18] = test: as above; details: visual scoring vs untreated control after about 3 weeks
Text: as §3

Veronica persica (VERPE) [19] = test: as above; details: visual scoring vs untreated control after about 3 weeks
Text: as §3

Viola tricolor (VIOTR) [20] = test: as above; details: visual scoring vs untreated control after about 3 weeks
Text: as §3

[21] = system: Polygonum convolvulus (POLCO); test: as above; details: visual scoring vs untreated control after about 3 weeks
Text: as §3

[22] = system: Abutilon theophrasti (ABUTH); test: as above; details: visual scoring vs untreated control after about 3 weeks
Text: as §3

[23] = system: Amaranthus retroflexus (AMARE); test: Post-emergence herbicidal efficacy at 80 g/ha, greenhouse pot test; details: visual rating vs untreated control after about 3 weeks
Description: (§4) Seeds of monocotyledonous and dicotyledonous weeds and crop plants were placed in sandy loam in plastic or organic planting pots, covered with soil and cultivated in a greenhouse under controlled growth conditions. 2 to 3 weeks after sowing, the test plants were treated at the one-leaf stage. The compounds of the invention, formulated in the form of wettable powders (WP) or as emulsion concentrates (EC), were then sprayed onto the green parts of the plants as aqueous suspension or emulsion with addition of 0.5% additive at a water application rate of 600 l/ha (converted). After the test plants had been kept in the greenhouse under optimum growth conditions for about 3 weeks, the activity of the preparations was rated visually in comparison to untreated controls. For example, 100% activity=the plants have died, 0% activity=like control plants. Tables B1 to B6 below show the effects of selected compounds of the general formula (I) according to Table 1 on various harmful plants and an application rate corresponding to 80 g/ha, which were obtained by the experimental procedure mentioned above.

Viola tricolor (VIOTR) [24] = test: as above; details: visual rating vs untreated control after about 3 weeks
Description: as §4

[25] = system: Matricaria inodora (MATIN); test: Pre-emergence herbicide efficacy at 80 g/ha, greenhouse pot test; details: visual scoring vs untreated control after about 3 weeks
Text: as §3

[26] = system: Polygonum convolvulus (POLCO); test: Post-emergence herbicidal efficacy at 80 g/ha, greenhouse pot test; details: visual rating vs untreated control after about 3 weeks
Description: as §4

[27] = 320 g/ha, visual scoring vs untreated control after about 3 weeks
[28] = 320 g/ha, visual rating vs untreated control after about 3 weeks

| SMILES | Pre-emergence efficacy against Alopecurus myosuroides (ALOMY) [1] [%] | Pre-emergence efficacy against Stellaria media (STEME) (Stellaria media (STEME) [2]) [%] | Pre-emergence efficacy against Bassia scoparia (KCHSC) (Bassia scoparia (KCHSC) [3]; [27]) [%] | Pre-emergence efficacy against Amaranthus retroflexus (AMARE) [4] [%] | Pre-emergence efficacy against Setaria viridis (SETVI) (Setaria viridis (SETVI) [5]) [%] | Pre-emergence efficacy against Veronica persica (VERPE) (Veronica persica (VERPE) [6]) [%] | Pre-emergence efficacy against Abutilon theophrasti (ABUTH) [7] [%] | Pre-emergence efficacy against Poa annua (POAAN) (Poa annua (POAAN)) [%] | Pre-emergence efficacy against Matricaria inodora (MATIN) [9] [%] | Post-emergence efficacy against Alopecurus myosuroides (ALOMY) [10] [%] | Post-emergence action against Stellaria media (STEME) (Stellaria media (STEME) [11]) [%] | Post-emergence efficacy against Bassia scoparia (KCHSC) (Bassia scoparia (KCHSC) [12]) [%] | Post-emergence efficacy against Amaranthus retroflexus (AMARE) [13] [%] | Post-emergence efficacy against Veronica persica (VERPE) (Veronica persica (VERPE) [14]; [28]) [%] | Post-emergence efficacy against Abutilon theophrasti (ABUTH) [15] [%] | Pre-emergence efficacy against Alopecurus myosuroides (ALOMY) [16] [%] | Pre-emergence efficacy against Amaranthus retroflexus (AMARE) [17] [%] | Pre-emergence efficacy against Viola tricolor (VIOTR) (Viola tricolor (VIOTR) [20]) [%] | Pre-emergence efficacy against Abutilon theophrasti (ABUTH) [22] [%] | Post-emergence efficacy against Amaranthus retroflexus (AMARE) [23] [%] | further results |
| --- | --- | --- | --- | --- | --- | --- | --- | --- | --- | --- | --- | --- | --- | --- | --- | --- | --- | --- | --- | --- | --- |
| Cc1cc(C)c(-c2cc(C(F)(F)Cl)no2)c(Oc2ncc(Cl)cn2)n1 [Example I-8] | 100 | 100 | 100 | 100 | 90 | 100 | 100 | 100 | 100 | 100 | 90 | 90 | 100 | 100 | 90 | 90 | 100 | 90 | 100 | 100 | Pre-emergence efficacy against Digitaria sanguinalis (DIGSA) [8]: 100%; Pre-emergence efficacy against Setaria viridis (SETVI) (Setaria viridis (SETVI) [18]): 100%; Pre-emergence efficacy against Veronica persica (VERPE) (Veronica persica (VERPE) [19]): 80%; Pre-emergence efficacy against Polygonum convolvulus (POLCO) [21]: 90%; Post-emergence efficacy against Viola tricolor (VIOTR) (Viola tricolor (VIOTR) [24]): 90% |
| Cc1cc(C)c(-c2cc(C(F)F)no2)c(Oc2ccc(F)cn2)n1 [Example I-293] |  |  |  |  |  |  |  |  |  |  |  |  |  |  |  | 90 | 100 | 90 | 90 | 100 | Pre-emergence efficacy against Setaria viridis (SETVI) (Setaria viridis (SETVI) [18]): 100%; Pre-emergence efficacy against Veronica persica (VERPE) (Veronica persica (VERPE) [19]): 80%; Pre-emergence efficacy against Polygonum convolvulus (POLCO) [21]: 80%; Pre-emergence efficacy against Matricaria inodora (MATIN) [25]: 100%; Post-emergence efficacy against Polygonum convolvulus (POLCO) [26]: 100% |
| Cc1cc(C)c(-c2cc(C(F)F)no2)c(Oc2cnc(Cl)cn2)n1 [Example I-11] | 100 | 100 | 90 | 100 | 90 | 100 | 90 | 100 | 100 | 90 | 100 | 90 | 100 | 100 |  |  |  |  |  |  |  |
| Cc1cc(C)c(-c2cc(C(F)F)no2)c(Oc2ncc(Cl)cc2F)n1 [Example I-14] |  | 100 |  | 100 | 100 |  | 100 | 100 | 100 | 100 | 100 | 100 | 90 |  | 90 |  | 100 | 100 | 80 | 100 | Pre-emergence efficacy against Bassia scoparia (KCHSC) (Bassia scoparia (KCHSC) [3]; dosage 1280 g/ha in Table C6, visual scoring after about 3 weeks): 100%; Post-emergence efficacy against Veronica persica (VERPE) (Veronica persica (VERPE) [14]; dosage printed 80 g/ha in Table A9, visual rating after about 3 weeks): 100%; Post-emergence efficacy against Viola tricolor (VIOTR) (Viola tricolor (VIOTR) [24]): 100% |
